# According to ChEMBL document CHEMBL3507680, “University of Dundee, Gates Library screen for HepG2 cell viability”:
# Assay: Human HepG2 cell viability assay in 384 well format
# Type: toxicity, cell-based
# Design: dose 125 nL, time 70.5 hour; cytotoxicity at 70.5 h: concentration not given beside the values
# Settings: HepG2 cells, read-out: Inhibition
row,SMILES,cytotoxicity at 70.5 h
1,CCc1cnc2c(c1NCc1cccc(OC)c1)c(=O)n(C)c(=O)n2C,33.7%
2,Cc1nn(C)cc1CN1CCc2nc(-c3cccnc3)nc(O)c2C1,-3.92%
3,CCNC(=O)N1CCCC(c2noc(CC)n2)C1 (stereo not given),-3.02%
4,CCN(CC)S(=O)(=O)NCc1ccc(-c2ccc(C(N)=O)c(C)n2)cc1,-12.3%
5,Cc1ccc(CN2CCC(n3cc(C(O)c4ccccc4)nn3)CC2)o1 (stereo not given),-5.94%
6,Cc1ccc(CNC(=O)CN2CCN(CC(O)C3CC3)CC2)cc1 (stereo not given),-8.6%
7,CC(CO)CNC(=O)c1cc2cccc(F)c2o1 (stereo not given),-9.63%
8,COC1CCN(C(=O)Cc2csc(-c3ccc(F)cc3)n2)CC1,0.103%
9,CC(C)N(C)CCC(=O)N1CCCC(c2ccc(C(=O)O)cc2)C1 (stereo not given),-7.94%
10,OCCN1CCC(CNCCOCC(F)(F)F)CC1,3.98%
11,Cc1cc(N2CCCCC2)nc(N(CCO)CCO)c1C#N,-8.15%
12,CCc1nc(C(=O)N2CC(C)CN(C)c3ccccc32)c[nH]1 (stereo not given),-2.27%
13,CCn1cc(NC(=O)CCc2ccc3c(c2)OCCCO3)cn1,10.1%
14,Cc1noc(C)c1C(C)NC(=O)N1CCN(c2cccs2)CC1 (stereo not given),6.76%
15,Cc1noc(C)c1CN1CCCC2(C1)CN(c1nncs1)CCO2 (stereo not given),-7.2%
16,CSCC(C)N(C)S(=O)(=O)c1ccc(Cl)cc1C#N (stereo not given),-5.66%
17,Cc1cc(NC(=O)NCc2nncn2C)ccc1OC(C)C,22.5%
18,CC(C)CNC(=O)c1ccc(NC(=O)NC(C)(C)CO)cc1Cl,-2.58%
19,COC(=O)C(NC(=O)c1cc(F)cc(F)c1)c1cccnc1 (stereo not given),-8.87%
20,Fc1ccc2c(C3=CCN(Cc4nnc(C5CCC5)o4)CC3)c[nH]c2c1,2.23%
21,Cn1ccnc1C(=O)N1CCC2(CCN2CC2CC2)C1 (stereo not given),9.69%
22,c1cnc(N2CCC3(CCN(CC4CCOC4)CC3)CC2)nc1 (stereo not given),1.98%
23,CC[C@H](CO)NC(=O)c1coc(COc2cccc(F)c2F)n1,9.55%

row,SMILES,cytotoxicity at 70.5 h
1,CC(=O)CSc1nnc2n1N=CN(c1cccc(Cl)c1)C2,-8.9%
2,O=C(NCc1cccnc1)C1=NN(c2ccccc2)C(=O)CN1,-13.9%
3,CS(=O)(=O)N1CCC(NC(=O)COc2ccc3ccccc3c2)CC1,-1.61%
4,CSc1ccc(C(=O)N2CC(=O)N(Cc3cccs3)CC(O)C2)cc1 (stereo not given),-6.27%
5,CC(C)c1nc2n(n1)CC(NCc1nnc(C(C)C)o1)CC2 (stereo not given),-19.6%
6,CNC(=O)C1CCCN(c2nc3c(-c4ccccc4)csc3c(=O)[nH]2)C1 (stereo not given),4.92%
7,c1ccc(OC[C@]23COC[C@H]2CN(C2CCOCC2)C3)nc1,-9.47%
8,Cc1nc(CCN(C)C(=O)CCNC(=O)c2ccccc2F)no1,-4.9%
9,CCN(CC)S(=O)(=O)N1CCCC1c1cccc(Nc2ncc(C)s2)n1 (stereo not given),-11.3%
10,COc1cccc(CNCc2cccc(Cl)c2)c1O,-4.96%
11,CCn1nnc2c1C(COCCN(C)C)CN(Cc1ccco1)C2 (stereo not given),11.5%
12,Cc1cc(C(=O)N2CCN(C(=O)CCC3CCCCC3)CC2)n(C)n1,-18.7%
13,CN(Cc1ccco1)Cc1ccccc1CNC(=O)c1cnc[nH]1,13.3%
14,CC(C)N1CCCCC1c1cc(CO)[nH]n1 (stereo not given),-3.81%
15,O=C(c1ccc(Cl)o1)N1CCCC1c1nnc2n1CCCCC2 (stereo not given),1.9%
16,CCSC1(CNc2ncc(Br)cn2)CCOCC1,-5.62%
17,COCCNC(=O)[C@]12COC[C@H]1CN(C1CCOCC1)C2,10.6%
18,Cc1cccc(OCCC(=O)N(C)CCNS(C)(=O)=O)c1C,0.181%
19,Cc1cccc(CN2CCc3nnc(CO)n3CC2)n1,-3.1%
20,CN(Cc1ccc(F)c(F)c1)Cc1cc2c(cc1Br)OCCO2,-8.74%
21,O=C(c1ccncc1)N1CCCC2(CCN(c3cccnc3)C2=O)C1 (stereo not given),0.0433%
22,Cc1cc(CN(C)C(=O)C2CCCN(C(=O)c3ccc(Cl)cc3)C2)no1 (stereo not given),-10.8%
23,CC(=O)N1CCC2(C1)c1ccccc1S(=O)(=O)N2CCC(C)C (stereo not given),-11.2%

row,SMILES,cytotoxicity at 70.5 h
1,NC(=O)C1CCN(C(=O)c2cc(S(=O)(=O)N3CCCC3)cs2)CC1,-8.68%
2,Cc1cc(F)cc(S(=O)(=O)NCCCN2CCC(O)CC2)c1,11.3%
3,CNC(=O)COc1ccc(CNc2c(Cl)cccc2C#N)cc1,-2.72%
4,Fc1cccnc1O[C@H]1CN(Cc2ccoc2)[C@@H]2CCCO[C@H]12,-4.66%
5,Cc1ccc(OCCN(C)C(=O)CCCN2CCCC2=O)c(C)c1,-5.15%
6,O=C(NCc1ccccc1)C1=NOC2(CCNC2)C1 (stereo not given),-11%
7,CCC(C)N(Cc1ccncc1)Cc1cccc(Cn2cccn2)c1 (stereo not given),-6.76%
8,OCCN1CCC(F)(F)C2(CCN(c3cccnc3)C2)C1 (stereo not given),-6.87%
9,c1cn(CCNc2nc(NC3CC3)nc3c2CCNCC3)nn1,-14.7%
10,O=C(NCCc1ccn(-c2ccc(F)cc2)n1)C1CCCO1 (stereo not given),-5.68%
11,CCc1noc(C(C)N2CCN(CC(C)C)CC2)n1 (stereo not given),12.8%
12,CN(C)C(=O)c1cc(-c2ccccc2)[nH]n1,-6.41%
13,Cc1ccc2c(n1)N(C)CCN(C(=O)NC1CC1)C2,25.2%
14,Cc1cnc(-c2cccc(-c3ccn(CCCO)n3)c2)nc1N(C)C,-3.76%
15,CC(=O)N1CCC(C(=O)N2CCC(=Cc3cccc(F)c3)CC2)CC1,-11.3%
16,CC(C)N(C)Cc1cc(=O)n2c(n1)CN(C(=O)c1ccnnc1)CCC2,-2.81%
17,CCS(=O)(=O)NCC(=O)Nc1cc(CC(C)(C)C)n[nH]1,0.46%
18,COCCOCC(=O)Nc1cccc(CN(C)C(C)=O)c1,27.5%
19,CCc1ccsc1CNC(=O)CNC(=O)C(C)(C)C,-7.92%
20,COc1ccc(CNCC(O)c2cccc(O)c2)cc1Br (stereo not given),-3.02%
21,CN1CCN2CCN(Cc3ccccc3Cn3cccn3)CC2C1 (stereo not given),-0.968%
22,CCOCC1CCN(C(=O)Nc2ccc(-c3csnn3)cc2)C1 (stereo not given),-11.9%
23,CS(=O)(=O)CCN1CCSCC1c1ccc(Cl)cc1 (stereo not given),-1.17%

row,SMILES,cytotoxicity at 70.5 h
1,O=C(Cn1cc(NC(=O)c2ccc(F)cc2F)cn1)NC1CCCC1,-4.45%
2,CCC(=O)N1CCC2(CC1)CC(N1CCOCC1)c1cc(C)ccc12 (stereo not given),-13.5%
3,CC(C)N1CCC(c2ccnc3c(C(=O)N4CCOCC4)ncn23)CC1,-5.36%
4,CC(C)C(=O)NS(=O)(=O)c1ccc(C#N)cc1C(F)(F)F,-2.54%
5,COc1ncc(C2(O)CCN(Cc3cccc(F)c3F)CC2)c(OC)n1,-3.22%
6,CCn1ncc(-c2cc(C(F)(F)F)nc(N3CCC(N)CC3)n2)c1C,8.37%
7,Cc1ccc(S(=O)(=O)NCc2cnn(C)c2)c(F)c1,-3.12%
8,c1cnc(-c2noc(C3CN(Cc4ccc5c(c4)CCO5)C3)n2)nc1,-2.95%
9,O=C1OCCN1CCNCC1(O)CCCN(CCC2CCCCC2)C1=O (stereo not given),-5.99%
10,c1csc(CCNc2nc(-c3ccncc3)nc3c2CCNCC3)c1,-6.1%
11,CNCCc1nc2cc(Cl)ccc2[nH]1,16.5%
12,CCNC(=O)C1CCCN(Cn2nc(C(C)(C)C)ccc2=O)C1 (stereo not given),21.4%
13,Cc1nc(NC2CCOCC2)cc(C2CCN2S(C)(=O)=O)n1 (stereo not given),-6.12%
14,c1cc(-c2c[nH]nc2C2CCCCC2)nc(N2CCCCCC2)n1,2.67%
15,Cc1cc(C)n(CCN2CCN(C(=O)c3ccc(Br)o3)CC2)n1,-4.56%
16,CC(C)CCNC(=O)C(c1cccc(F)c1)N(C)C (stereo not given),3.05%
17,Cc1cc(CN2CCN(C(=O)NCc3ccco3)CC2)no1,18.9%
18,CCN(C)C[C@@H]1CN(S(=O)(=O)c2cccc(Cl)c2)C[C@@H]1CO,2.35%
19,C[C@H]1CC[C@H](C(=O)N2CCC(n3cc(C4(O)CCCC4)nn3)CC2)CC1,-16.2%
20,O=C(NCC1(N2CCOCC2)CCSC1)Nc1ccc(F)cc1 (stereo not given),-6.94%
21,COc1cccc(CC(=O)N2CCCSCC2CN2CCCC2)c1 (stereo not given),-3.04%
22,Cc1noc(C)c1-c1cncc(C2CCCN2Cc2cncnc2)n1 (stereo not given),-20.4%
23,Cc1cc(C)nc(N2CCN(Cc3cc4n(n3)CCNC4)CC2)n1,-8.76%

row,SMILES,cytotoxicity at 70.5 h
1,O=C1CNc2ncnc(N3CCN(c4ccccc4F)CC3)c2N1,16.1%
2,Cc1ccc(C(=O)Nc2ccc(N(C)C)nc2)n1C,3.75%
3,O=C(NCCC(=O)N1CCCc2ccccc21)c1cc(F)cc(F)c1,-7.42%
4,COc1ccc2c(c1)CN(Cc1ccco1)C(=O)CCN2,-10%
5,COc1ccc(Br)c(C(=O)NCC2CCN(S(=O)(=O)C3CC3)CC2)c1,16.8%
6,CCOCC1(CNCc2cc(O)c3cc(C)ccc3n2)CC1,-1.7%
7,CC(C)(C)N1CC(C(=O)N2CCN(CCn3cncn3)CC2)CC1=O (stereo not given),-3.91%
8,CCOc1cc(F)ccc1NC1CCN(CC(F)(F)F)C1=O (stereo not given),-0.756%
9,CCc1c(C)nc2cc(C3CCN(Cc4ccncc4C)C3)nn2c1O (stereo not given),-3.92%
10,O=C(NCC1CC[C@@]2(CNCCOC2)O1)c1cccnc1 (stereo not given in full),-2.12%
11,Cc1nnc(CN(C)C(=O)C(CC(C)C)N2CCCCC2=O)n1C (stereo not given),-5.01%
12,CCc1nc(N2CCC3(CC2)[C@H](O)C[C@@H]3O)ncc1C,-5.93%
13,Cc1nnc(SCc2cccc(F)c2)n1CC(N)=O,-125%
14,CC(=O)N1CCc2nc(C3CCN(C(=O)c4ccccc4)C3)ncc2C1 (stereo not given),0.561%
15,CC(C)c1n[nH]c(C2CN(CC(=O)N(C)Cc3ccco3)CCO2)n1 (stereo not given),-3.93%
16,COCC1CN(CC2CC2)Cc2nn(CC3CC3)cc21 (stereo not given),12.3%
17,O=C(O)[C@@H]1CN(C(=O)c2cc(C3CC3)n[nH]2)C[C@H]1c1cccc(F)c1,-9.94%
18,CCCN(C(=O)c1cc2c([nH]c1=O)CCCC2=O)C1CCCCC1,27.9%
19,O=C(NCCNc1ccc(C(F)(F)F)cn1)c1ccoc1,-8.13%
20,CC(C)Oc1ccc(CNC(=O)C2CCS(=O)(=O)C2)cn1 (stereo not given),26.3%
21,Cc1oc(-c2ccco2)nc1CC(=O)N1CCC(CCO)C1 (stereo not given),-11%
22,O=C1CC(c2ccncc2)C2(CCN(CCO)CC2)N1 (stereo not given),-10.4%
23,Cc1nn(C)c(N(C)C)c1CNCCCNS(C)(=O)=O,4.14%
